One may read the IC50 as the concentration that gives 50% inhibition.

This assay addresses Xanthine dehydrogenase/oxidase (Bos taurus, UniProt P80457). In words: Inhibition of bovine xanthine oxidase assessed as reduction in uric acid formation using xanthine as substrate preincubated for 10 mins followed by substrate addition measured at first 2 mins by spectrophotometric analysis.

Xanthine dehydrogenase/oxidase, sequence (P80457 whole entry): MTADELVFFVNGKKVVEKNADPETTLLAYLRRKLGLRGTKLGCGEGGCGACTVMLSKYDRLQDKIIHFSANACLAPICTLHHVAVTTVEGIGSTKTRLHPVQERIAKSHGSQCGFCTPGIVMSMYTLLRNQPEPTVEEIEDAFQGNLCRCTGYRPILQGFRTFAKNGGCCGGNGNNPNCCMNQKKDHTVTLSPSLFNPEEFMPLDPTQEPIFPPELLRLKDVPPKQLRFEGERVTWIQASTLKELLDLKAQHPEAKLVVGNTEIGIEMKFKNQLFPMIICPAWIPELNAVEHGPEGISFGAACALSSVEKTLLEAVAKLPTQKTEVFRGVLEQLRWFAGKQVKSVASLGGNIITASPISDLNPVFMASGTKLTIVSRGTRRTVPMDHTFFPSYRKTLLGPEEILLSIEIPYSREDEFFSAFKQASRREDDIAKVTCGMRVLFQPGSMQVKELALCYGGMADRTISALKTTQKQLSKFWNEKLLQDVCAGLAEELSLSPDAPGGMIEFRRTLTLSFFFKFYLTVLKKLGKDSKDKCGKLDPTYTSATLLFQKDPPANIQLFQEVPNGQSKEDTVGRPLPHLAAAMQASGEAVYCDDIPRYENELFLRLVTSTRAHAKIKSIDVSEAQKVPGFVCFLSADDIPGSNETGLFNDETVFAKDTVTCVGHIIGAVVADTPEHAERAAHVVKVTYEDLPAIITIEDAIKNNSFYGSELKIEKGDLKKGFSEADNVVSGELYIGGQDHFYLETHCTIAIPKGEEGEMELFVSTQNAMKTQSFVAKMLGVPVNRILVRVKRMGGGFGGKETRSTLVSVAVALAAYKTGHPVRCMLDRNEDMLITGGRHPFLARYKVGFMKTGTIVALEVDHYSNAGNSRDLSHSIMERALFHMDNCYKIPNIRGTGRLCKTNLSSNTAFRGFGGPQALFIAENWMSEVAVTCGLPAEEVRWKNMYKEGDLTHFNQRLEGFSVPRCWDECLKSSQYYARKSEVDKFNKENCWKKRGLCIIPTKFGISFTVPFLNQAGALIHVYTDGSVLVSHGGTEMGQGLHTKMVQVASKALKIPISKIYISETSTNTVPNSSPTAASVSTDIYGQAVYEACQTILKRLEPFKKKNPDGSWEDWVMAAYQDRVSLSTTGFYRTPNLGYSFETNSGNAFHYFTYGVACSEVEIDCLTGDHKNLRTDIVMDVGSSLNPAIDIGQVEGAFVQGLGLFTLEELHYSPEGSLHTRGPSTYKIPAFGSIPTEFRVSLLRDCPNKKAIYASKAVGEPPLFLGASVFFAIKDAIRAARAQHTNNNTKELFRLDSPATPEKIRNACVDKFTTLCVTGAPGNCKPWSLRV

Take `N#Cc1ccccc1COc1ccc(NC(=O)c2ccncc2)cc1C#N`: the IC50 amounted to 0.312 µM.

For the compound `N#Cc1cc(-c2n[nH]c(-c3ccncc3)n2)ccn1` [TOPIROXOSTAT], the IC50 was 0.021 µM.

The values above are taken from ChEMBL document CHEMBL4406855, “Design, synthesis and biological evaluation of N-(3-(1H-tetrazol-1-yl)phenyl)isonicotinamide derivatives as novel xanthine oxidase inhibitors” (Eur J Med Chem, 2019).
